“Also recorded” adds a separate entry of the source.
test system: α-glucosidase; assay: α-Glucosidase activity inhibition test (pNPG); format: biochemical; conditions: 0.1 to 0.7 mg/mL; in vitro; comparison with acarbose where stated
Description: The samples were prepared at different concentrations (1-7 mg/mL), and the following compounds were prepared: α-glucosidase (0.1 Ua), PBS (pH 6.8, 0.05 mol/L), PNPG (2.5 mmol/L), and Na2CO3 (1 mol/L). The control, sample blank, and sample groups were incubated at their appropriate temperature and time, and the absorbance at 405 nm was measured using a microplate reader. The inhibitory activity was calculated using Eq (2). The inhibition rate of α-glucosidase was solved according to the concentration of different mass samples. The IC50 values were calculated based on the fitting curves. […] All experiments were conducted in triplicate and the data are expressed as the mean ± standard deviation (SD). Statistical analysis was performed using SPSS 27.0 software with Duncan's multiple and one-way ANOVA tests to determine the differences among the mean values. The mapping was done using prism and bioinformatics tools (http://www.bioinformatics.com.cn/).

Substance | Inhibition of α-glucosidase in words
NWYR [tetrapeptide from in silico trypsin hydrolysis of porcine collagen BAX02569.1, synthesized by solid-phase synthesis] | significantly inhibited α-glucosidase activity in a concentration-dependent manner; also recorded: no significant difference between them and acarbose; also recorded: the inhibitory effect of NWYR was stronger

test system: not given; assay: not given; conditions: peptides from bovine skin collagen; cited from earlier work
Description: (§1) At present, dietary proteins isolated from black beans, fermented soybean, balsam pear, and other sources have been identified as having anti-diabetic peptide properties. In vitro experiments have confirmed the hypoglycemic effects of many of these peptides, with some outperforming clinical drugs. […] He L, et al. isolated five peptides (GPVGPPG, GPPGPT, APGGAP, FGPGP, and GPVG) from bovine skin colla ...

Substance | Anti-diabetic properties
APGGAP [peptide from bovine skin collagen] | exhibited anti-diabetic properties
FGPGP [peptide from bovine skin collagen] | exhibited anti-diabetic properties
GPPGPT [peptide from bovine skin collagen] | exhibited anti-diabetic properties
GPVG [peptide from bovine skin collagen] | exhibited anti-diabetic properties
GPVGPPG [peptide from bovine skin collagen] | exhibited anti-diabetic properties

test system: α-glucosidase; assay: not given; conditions: peptides from silkworm pupae; cited from earlier work
Description: as §1

Substance | Suppression of α-glucosidase activity
NSPR [peptide from silkworm pupae] | can suppress α-glucosidase activity
QPGR [peptide from silkworm pupae] | can suppress α-glucosidase activity
QPPT [peptide from silkworm pupae] | can suppress α-glucosidase activity
SQSPA [peptide from silkworm pupae] | can suppress α-glucosidase activity

From PMC10931479, “Exploration of hypoglycemic peptides from porcine collagen based on network pharmacology and molecular docking” (PLOS ONE, 2024)
